In ChEMBL document CHEMBL6134867, “Design and Synthesis of FR-β Targeting Chimeric Molecules for Reprogramming Tumor-Associated Macrophages Using 6-Substituted Pyrrolo[2,3-d]pyrimidines as Targeting Ligands” (J Med Chem, 2025):
The source made the active and inactive calls. The calls are words filed in the database; no cut-off is given here.

Columns and labels:
[1] = Prodrug release assessed as IMDQ formation in presence of 10 mM GSH and measured after 1 to 8 hrs by HPLC analysis; format: ADME; conditions: time 1-8 hrs
[2] = Toxicity against BALB/c mouse xenografted with mouse 4T1 cells assessed as pathological changes in heart at 1 mg/kg, iv qd for 14 days by Hematoxylin-Eosin staining based analysis; format: organism-based; conditions: in vivo, 336 h, time 14 day
BMDM [3] = assay: Induction of macrophage repolarization in FR-beta expressing IL-4 differentiated M2 phenotype mouse BMDM cells assessed as reprogramming to M1 phenotype by measuring upregulation of iNOS expression at 10 nM incubated for 24 hrs by western blot analysis; format: functional, cell-based
[4] = Toxicity against BALB/c mouse xenografted with mouse 4T1 cells assessed as effect on body weight at 1 mg/kg, iv qd for 14 days and measured every day; format: organism-based; conditions: in vivo, 336 h, time 14 day
[5] = Stability of the compound in mouse plasma at 5 uM and measured at 37 degC and for up to 12 hrs by HPLC analysis; format: ADME, cell-free; conditions: for remaining at 12 h, 5 µM: read-out: Stability
[6] = Toxicity against BALB/c mouse xenografted with mouse 4T1 cells assessed as pathological changes in spleen at 1 mg/kg, iv qd for 14 days by Hematoxylin-Eosin staining based analysis; format: organism-based; conditions: in vivo, 336 h, time 14 day
BMDM [7] = assay: Induction of macrophage repolarization in FR-beta expressing IL-4 differentiated M2 phenotype mouse BMDM cells assessed as reprogramming to M1 phenotype by measuring downregulation of CD206 mRNA expression at 10 nM incubated for 24 hrs by RT-qPCR analysis; format: functional, cell-based
Mus musculus [8] = assay: In vivo transition from anti-inflammatory to pro-inflammatory phenotypes in BALB/c mouse xenografted with mouse 4T1 cells assessed as upregulation in proportion of CD8+ cells at 1 mg/kg, iv qd for 14 days by flow cytometry; format: functional, organism-based; conditions: time 14.0 day
[9] = Cytotoxicity against mouse BMDM cells assessed as reduction in cell viability incubated for 24 hrs by CCK-8 assay; format: toxicity, cell-based
Mus musculus [10] = assay: In vivo transition from anti-inflammatory to pro-inflammatory phenotypes in BALB/c mouse xenografted with mouse 4T1 cells assessed as decrease in proportion of Ly6C+ and Ly6G+ cells within CD45+ population at 1 mg/kg, iv qd for 14 days by flow cytometry; format: functional, organism-based; conditions: time 14.0 day
[11] = Stability of the compound in PBS measured at 4 degC and for 15 days; format: physicochemical; conditions: time 15 day, read-out: Stability
[12] = Toxicity against BALB/c mouse xenografted with mouse 4T1 cells assessed as pathological changes in kidney at 1 mg/kg, iv qd for 14 days by Hematoxylin-Eosin staining based analysis; format: organism-based; conditions: in vivo, 336 h, time 14 day
BMDM [13] = assay: Induction of macrophage repolarization in FR-beta expressing IL-4 differentiated M2 phenotype mouse BMDM cells assessed as reprogramming to M1 phenotype by measuring downregulation of CD206 expression at 10 nM incubated for 24 hrs by western blot analysis; format: functional, cell-based
[14] = Toxicity against BALB/c mouse xenografted with mouse 4T1 cells assessed as heightened inflammatory response in lung at 1 mg/kg, iv qd for 14 days by Hematoxylin-Eosin staining based analysis; format: organism-based; conditions: in vivo, 336 h, time 14 day
Mus musculus [15] = assay: In vivo transition from anti-inflammatory to pro-inflammatory phenotypes in BALB/c mouse xenografted with mouse 4T1 cells assessed as CD4+ cells population at 1 mg/kg, iv qd for 14 days by flow cytometry; format: functional, organism-based; conditions: time 14.0 day
4T1 [16] = assay: Antitumor activity against mouse 4T1 cells xenografted in BALB/c mouse assessed as inhibition of tumor growth at 1 mg/kg, iv qd for 14 days and measured every day by digital caliper analysis; format: functional, organism-based; conditions: time 14.0 day
[17] = Toxicity against BALB/c mouse xenografted with mouse 4T1 cells assessed as pathological changes in liver at 1 mg/kg, iv qd for 14 days by Hematoxylin-Eosin staining based analysis; format: organism-based; conditions: in vivo, 336 h, time 14 day
HUVEC = assay: Cytotoxicity against human HUVEC cells assessed as reduction in cell viability incubated for 24 hrs by CCK-8 assay; format: toxicity, cell-based
4T1 [18] = assay: Cytotoxicity against mouse 4T1 cells assessed as reduction in cell viability incubated for 24 hrs by CCK-8 assay; format: toxicity, cell-based; conditions: 4t1, 24 h
BMDM [19] = assay: Induction of macrophage repolarization in FR-beta expressing IL-4 differentiated M2 phenotype mouse BMDM cells assessed as reprogramming to M1 phenotype by measuring upregulation of iNOS mRNA expression at 10 nM incubated for 24 hrs by RT-qPCR analysis; format: functional, cell-based
BMDM [20] = assay: Induction of macrophage repolarization in FR-beta expressing IL-4 differentiated M2 phenotype mouse BMDM cells assessed as reprogramming to M1 phenotype by measuring downregulation of Arg1 mRNA expression at 10 nM incubated for 24 hrs by RT-qPCR analysis; format: functional, cell-based
BMDM [21] = assay: Induction of macrophage repolarization in FR-beta expressing IL-4 differentiated M2 phenotype mouse BMDM cells assessed as reprogramming to M1 phenotype by measuring downregulation of Arg1 expression at 10 nM incubated for 24 hrs by western blot analysis; format: functional, cell-based
BMDM [22] = assay: Induction of macrophage repolarization in FR-beta expressing IL-4 differentiated M2 phenotype mouse BMDM cells assessed as reprogramming to M1 phenotype by measuring upregulation of IL-6 level at 10 nM incubated for 24 hrs by ELISA; format: functional, cell-based
BMDM [23] = assay: Induction of macrophage repolarization in FR-beta expressing IL-4 differentiated M2 phenotype mouse BMDM cells assessed as reprogramming to M1 phenotype by measuring upregulation of MyD88 expression at 10 nM incubated for 24 hrs by western blot analysis; format: functional, cell-based
BMDM [24] = assay: Induction of macrophage repolarization in FR-beta expressing IL-4 differentiated M2 phenotype mouse BMDM cells assessed as reprogramming to M1 phenotype by measuring downregulation of IL-10 level at 10 nM incubated for 24 hrs by ELISA; format: functional, cell-based
BMDM [25] = assay: Induction of macrophage repolarization in FR-beta expressing IL-4 differentiated M2 phenotype mouse BMDM cells assessed as reprogramming to M1 phenotype by measuring upregulation of IL-6 mRNA expression at 10 nM incubated for 24 hrs by RT-qPCR analysis; format: functional, cell-based
BMDM [26] = assay: Induction of macrophage repolarization in FR-beta expressing IL-4 differentiated M2 phenotype mouse BMDM cells assessed as reprogramming to M1 phenotype by measuring TNF-alpha level at 10 nM incubated for 24 hrs by ELISA; format: functional, cell-based
BMDM [27] = assay: Induction of macrophage repolarization in FR-beta expressing IL-4 differentiated M2 phenotype mouse BMDM cells assessed as reprogramming to M1 phenotype by measuring TNF-alpha mRNA expression at 10 nM incubated for 24 hrs by RT-qPCR analysis; format: functional, cell-based
BMDM [28] = assay: Induction of macrophage repolarization in FR-beta expressing IL-4 differentiated M2 phenotype mouse BMDM cells assessed as reprogramming to M1 phenotype by measuring downregulation of IL-10 mRNA expression at 10 nM incubated for 24 hrs by RT-qPCR analysis; format: functional, cell-based
BMDM [29] = assay: Induction of macrophage repolarization in FR-beta expressing IL-4 differentiated M2 phenotype mouse BMDM cells assessed as reprogramming to M1 phenotype by measuring upregulation of TLR7 expression at 10 nM incubated for 24 hrs by western blot analysis; format: functional, cell-based

Row | Drug metabolism [1] | remaining at 360 h [11] [%] | SMILES | Activity [2] | Activity (BMDM [3]) | Activity [4] | Activity [6] | Activity (Mus musculus [8]) | Activity [9] | Activity (Mus musculus [10]) | Activity [12] | Activity (BMDM [13]) | Activity [14] | Activity (Mus musculus [15]) | Activity (4T1 [16]) | Activity [17] | Activity (HUVEC) | Activity (4T1 [18]) | further results
1 | metabolite_detected | < 95 | CCCCc1nc2c(N)nc3ccccc3c2n1Cc1ccc(CNC(=O)OCCSSC[C@H](NC(=O)CC[C@H](NC(=O)c2ccc(NCc3cnc4nc(N)[nH]c(=O)c4n3)cc2)C(=O)O)C(=O)O)cc1 | Non-toxic | Active; Less Effective Than Fgt-2,4 Observed | Non-toxic | Non-toxic | Active | Non-toxic | Active | Non-toxic | Active; Less Effective Than Fgt-2,4 Observed | Non-toxic | inactive | Active | Non-toxic | Non-toxic | Non-toxic | Stability ([5]; 12 h, 5 µM): Unstable; Activity (BMDM [7]): Active; Less Effective Than Fgt-2,4 Observed; Activity (BMDM [19]): Active; Less Effective Than Fgt-2,4 Observed; Activity (BMDM [20]): Active; Less Effective Than Fgt-2,4 Observed; Activity (BMDM [21]): Active; Less Effective Than Fgt-2,4 Observed
2 | – | – | Nc1nc(O)c2nc(CNc3ccc(C(=O)N[C@@H](CCC(=O)N[C@@H](CS)C(=O)O)C(=O)O)cc3)cnc2n1 | – | – | – | – | – | – | – | – | – | – | – | – | – | – | Non-toxic | –
3 | – | – | Nc1nc2[nH]c(CCCCc3ccc(C(=O)N[C@@H](CCC(=O)N[C@@H](CS)C(=O)O)C(=O)O)s3)cc2c(=O)[nH]1 | – | – | – | – | – | – | – | – | – | – | – | – | – | – | Non-toxic | –
4 | metabolite_detected | > 95 | CCCCc1nc2c(N)nc3ccccc3c2n1Cc1ccc(CNC(=O)OCCSSC[C@H](NC(=O)CC[C@H](NC(=O)c2ccc(CCCCc3cc4c(=O)[nH]c(N)nc4[nH]3)s2)C(=O)O)C(=O)O)cc1 | Non-toxic | – | Non-toxic | Non-toxic | Active | Non-toxic | Active | Non-toxic | – | Non-toxic | inactive | Active | Non-toxic | Non-toxic | Non-toxic | remaining at 12 h, 5 µM [5]: 95%
5 | – | – | Nc1nc2[nH]c(CC(=O)NCC(=O)N[C@@H](CCC(=O)N[C@@H](CS)C(=O)O)C(=O)O)cc2c(=O)[nH]1 | – | – | – | – | – | – | – | – | – | – | – | – | – | – | Non-toxic | –
6 | metabolite_detected | > 95 | CCCCc1nc2c(N)nc3ccccc3c2n1Cc1ccc(CNC(=O)OCCSSC[C@H](NC(=O)CC[C@H](NC(=O)CNC(=O)Cc2cc3c(=O)[nH]c(N)nc3[nH]2)C(=O)O)C(=O)O)cc1 | Non-toxic | Active | Non-toxic | Non-toxic | Active | Non-toxic | Active | Non-toxic | Active | Non-toxic | inactive | Active | Non-toxic | Non-toxic | Non-toxic | Activity (BMDM [22]): Active; Activity (BMDM [23]): Active; remaining at 12 h, 5 µM [5]: 95%; Activity (BMDM [7]): Active; Activity (BMDM [24]): Active; Activity (BMDM [25]): Active; Activity (BMDM [26]): inactive; Activity (BMDM [19]): Active; Activity (BMDM [20]): Active; Activity (BMDM [21]): Active; Activity (BMDM [27]): inactive; Activity (BMDM [28]): Active
7 | – | – | Nc1nc2[nH]c(CCCCc3ccc(C(=O)N[C@@H](CCC(=O)N[C@@H](CS)C(=O)O)C(=O)O)cc3)cc2c(=O)[nH]1 | – | inactive | – | – | – | – | – | – | inactive | – | – | – | – | – | Non-toxic | Activity (BMDM [29]): inactive
